Source: US8354502B2, “Bioactive peptides identified in enzymatic hydrolyzates of milk caseins and method of obtaining same” (Consejo Superior de Investigaciones Cientificas, priority 2005, dated 2013)
Like-named read-outs stand apart in the source and are kept apart here. Where a SMILES comes first, the peptide text is derived from it. Where no end group is shown, it is not given here.

What was measured:
[1] = system: spontaneously hypertensive rats (SHR); assay: Antihypertensive activity in spontaneously hypertensive rats (SHR), tail cuff SBP and DBP; assay type: in vivo, rat; conditions: 2 mg/kg, intragastric catheter
Description: The effect of several of the peptides identified on the blood pressure of spontaneously hypertensive rats (SHR) is studied. The peptides are chemically synthesized for this study.
The study is conducted with male SHR rats 17-20 weeks of age weighing 300 to 350 g, from Charles River Laboratories España S. A. The rats are kept in cages, five per cage, maintaining a stable temperature of 25° C., with 12-hour light-darkness cycles, taking water and food ad libitum. […] The SBP and DBP values are determined by taking 3 consecutive measurements and calculating the average of the three values for each one of these two variables. […]
The products to be tested are administered by means of an intragastric catheter within a time span ranging from 9 a.m. to 10 a.m., and the dosage tested is administered dissolved in 1 ml of distilled water. SBP and DBP readings are taken prior to the administration, and periodic measurements of these variables are also made every 2 hours following the administration, up to 8 hours post-administration. […]
The results are grouped and the ±average of the standard error of the measurement (SEM) for a minimum of 6 homogeneous tests is calculated. […]

[2] = molecular target: T1, angiotensin-converting enzyme (ACE) (Oryctolagus cuniculus, UniProt P12822); assay: Angiotensin-converting enzyme inhibitory activity (ACEIa) in vitro; assay type: biochemical
T1 sequence (P12822 34-1310): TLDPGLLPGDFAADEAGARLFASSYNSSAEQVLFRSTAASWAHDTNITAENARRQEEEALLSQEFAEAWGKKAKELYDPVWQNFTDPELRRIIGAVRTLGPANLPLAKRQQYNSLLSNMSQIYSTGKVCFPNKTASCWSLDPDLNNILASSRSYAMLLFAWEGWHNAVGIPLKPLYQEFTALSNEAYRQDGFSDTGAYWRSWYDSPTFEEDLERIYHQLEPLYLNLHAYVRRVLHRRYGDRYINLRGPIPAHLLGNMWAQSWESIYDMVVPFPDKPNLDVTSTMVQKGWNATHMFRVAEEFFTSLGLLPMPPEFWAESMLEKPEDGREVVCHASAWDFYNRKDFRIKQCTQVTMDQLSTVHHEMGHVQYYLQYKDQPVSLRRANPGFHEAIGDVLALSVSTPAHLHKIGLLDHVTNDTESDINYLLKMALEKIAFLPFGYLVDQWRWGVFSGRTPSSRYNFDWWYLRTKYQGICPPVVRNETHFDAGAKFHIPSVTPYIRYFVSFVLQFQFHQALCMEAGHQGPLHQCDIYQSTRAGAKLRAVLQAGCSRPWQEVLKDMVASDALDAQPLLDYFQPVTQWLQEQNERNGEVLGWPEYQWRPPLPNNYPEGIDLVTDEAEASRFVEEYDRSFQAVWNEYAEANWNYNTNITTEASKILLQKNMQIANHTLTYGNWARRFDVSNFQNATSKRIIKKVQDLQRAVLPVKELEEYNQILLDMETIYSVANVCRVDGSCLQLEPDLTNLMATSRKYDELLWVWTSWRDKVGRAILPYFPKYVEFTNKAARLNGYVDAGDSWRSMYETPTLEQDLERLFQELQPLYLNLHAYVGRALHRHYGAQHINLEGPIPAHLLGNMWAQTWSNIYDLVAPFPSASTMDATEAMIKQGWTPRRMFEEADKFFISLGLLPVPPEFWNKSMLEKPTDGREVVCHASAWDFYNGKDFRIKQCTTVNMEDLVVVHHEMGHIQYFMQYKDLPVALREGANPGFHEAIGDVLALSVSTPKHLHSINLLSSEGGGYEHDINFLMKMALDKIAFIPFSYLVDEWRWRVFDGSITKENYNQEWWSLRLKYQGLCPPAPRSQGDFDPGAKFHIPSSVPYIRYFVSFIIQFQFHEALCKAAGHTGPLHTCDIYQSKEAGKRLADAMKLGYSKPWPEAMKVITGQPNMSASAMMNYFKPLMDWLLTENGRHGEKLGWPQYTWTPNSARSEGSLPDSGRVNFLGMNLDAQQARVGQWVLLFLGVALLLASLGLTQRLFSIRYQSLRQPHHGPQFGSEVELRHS
Description: The ACE-inhibitory activity is measured in vitro by the method of D. W. Cushman and H. S. Cheung (Spectrophotometric assay and properties of angiotensin-converting enzyme in rabbit lung. Biochemical Pharmacology, 1971, 20:1637-1648) later modified by […]. Yoon, D. Y. Yu, […]. Chung (Novel angiotensin-1-converting enzyme inhibitory peptides derived from recombinant human αs1-casein expressed in Escherichia coli. Journal of Dairy Research 1999, 66,431-439). The substrate, […], Sigma, Chemical Co, St. Louis, Mo., USA), is dissolved in 0.1 M borate buffer with 0.3 M NaCl, pH 8.3, to obtain a final concentration of 5 mM. 40 μL of each one of the samples whose ACE-inhibitory activity is to be assayed are added to 100 μL of substrate. The ACE enzyme ([…], Sigma) is added, dissolved in 50% glycerol and diluted at the point in time of performing the test in 1/10 bidistilled water. The reaction is carried out at 37° C. for 30 minutes in water bath. The enzyme is inactivated by reducing the pH with 150 μl HCL 1N. The hipuric acid formed is extracted with 1000 μL ethyl acetate. Following agitation in vortex for 20 seconds, it is centrifuged at 3000×g for 10 minutes at ambient temperature. 750 μL are taken from the organic phase that is heat-evaporated at 95° C. for 10 minutes. The hipuric acid residue is re-dissolved in 800 μL bidistilled water and, after agitating for 20 seconds, the absorbance at 228 nm is measured in a Dur-70 spectrophotometer from Beckman Instruments, Inc., Fullerton, USA. The following equation is used for calculating the percentage of ACE-inhibitory activity: [formula] The blank is used to correct the background absorbance. This blank contains substrate, enzyme and 20 μL bidistilled water instead of sample, and the reaction is halted at time zero. The control entailed one hundred percent of the enzymatic action on the substrate in absence of inhibitors and contains […] of water instead of sample and is incubated for the same length of time as the sample. The results are shown as IC50 (μM) or concentration at which the activity of the enzyme is inhibited by 50%. The protein concentration is determined by means of the bicinchoninic acid test (Pierce-Rockord, Ill., USA), using bovine seroalbumin as a pattern.

[3] = system: Listeria innocua CECT 910T; assay: Antimicrobial activity (colony count after 2 h incubation); assay type: cell-based; conditions: synthetic peptide 0.05 mM
Description: (§1) The antimicrobial activity is determined in accordance with the method of A. Pellegrini, C. Deltting, U. Thomas, P. Hunziker (Isolation and characterization of four bactericidal domains in the bovine β-lactoglobulin Biochimica et Biophysica Acta, 2001, 1526:131-140) using as microorganisms Escherichia coli [American Type Culture Collection (ATCC), Rockville, Md., USA] ATCC 25922, Listeria innocua [Colección Española de Cultivos Tipo (CECT) Valencia, Spain] CECT 910T, Staphylococcus epidermidis CECT 231, Enterococcus faecalis CECT 795, Serratia marcescens CECT 854 and Staphylococcus carnosus CECT 4491T.
(§2) The bacterial suspensions are inoculated at 1% in the Tryptose Soy Broth (TSB) for Escherichia coli, Serratia marcescens and the strains of the Staphylococcus genus, or in the brain-heart infusion (BHI) broth for Enterococcus faecalis and Listeria innocua. The incubation is carried out at 37° C., except in the case of Serratia marcescens, which is at 30° C.
(§3) The bacterial innoculum, from which the work is begun, is obtained after incubating a colony grown in TSB-Agar or BHI-Agar in 10 mL of TSB or BHI overnight at 37a or 30° C. The bacterial suspension (1 mL) is diluted 1/50 with the corresponding culture medium, being incubated at the appropriate temperature for each strain up to achieving a population density of 1-4×10^8 colony-forming units (CFU) per mL. The culture is centrifuged at 2000×g for 10 minutes, the sedimented bacteria are washed twice with 15 mL phosphate buffer (pH 7.4) and the population is adjusted to 10^6 CFU/mL. On a sterile multi-well plate (Greiner Labortechnik, Frickenhausen, Germany), 50 μL of the bacterial suspension, 50 μL of the substance to be tested and 100 μL of the phosphate buffer are mixed with 2% of the appropriate culture medium in each case, and the mixture is incubated at 37° C. or 30° C. for 2 hours. After this time, the mixture is diluted to 10^−5, 100 μL of each one of the dilutions are added to TSB-Agar or BHI-Agar plates and the plates are incubated for 24 hours, after which time the colony count is taken.
(§4) The following equation is used for calculating the antimicrobial activity:
(§5) [formula] [formula] [formula] Measurement of the Angiotensin-Converting Enzyme Inhibitory Activity (ACEIa)

[4] = system: Staphylococcus carnosus CECT 4491T; assay: as above; assay type: cell-based; conditions: synthetic peptide 0.05 mM
Description: as §1, §2, §3, §4, §5

[5] = system: Escherichia coli ATCC 25922; assay: as above; assay type: cell-based; conditions: synthetic peptide 0.05 mM
Description: as §1, §2, §3, §4, §5

[6] = system: Staphylococcus epidermidis CECT 231; assay: as above; assay type: cell-based; conditions: synthetic peptide 0.05 mM
Description: as §1, §2, §3, §4, §5

[7] = system: Serratia marcescens CECT 854; assay: as above; assay type: cell-based; conditions: synthetic peptide 0.05 mM
Description: as §1, §2, §3, §4, §5

[8] = system: Enterococcus faecalis CECT 795; assay: as above; assay type: cell-based; conditions: synthetic peptide 0.05 mM
Description: as §1, §2, §3, §4, §5

[9] = molecular target: T1, angiotensin-converting enzyme (ACE); conditions: peptides from Manchego cheese, Gómez-Ruiz et al. 2004; read-out: ACE-inhibitory activity IC50; cited from earlier work
[10] = read-out: ACE-inhibitory activity CI50, synthetic peptides of FC1 and FD1 subfractions

Molecule | Antimicrobial activity L. innocua [3] | Antimicrobial activity S. carnosus [4] | antimicrobial activity against S. carnosus (in words) [4] | Antimicrobial activity E. coli [5] | Antimicrobial activity S. epidermidis [6] | Antimicrobial activity S. marcescens [7] | Antimicrobial activity E. faecalis [8] | also measured
CC(C)[C@H](NC(=O)[C@H](Cc1ccc(O)cc1)NC(=O)[C@@H]1CCCN1)C(=O)O [SEQ. ID. No. 15, PYV] (H-Pro-Tyr-Val-OH; N-terminus and C-terminus assumed) |  |  |  |  |  |  |  | lowering of the SBP and DBP [1]: significant lowering of the SBP and DBP; time of peak effect on the SBP after administration [1]: 2 h; IC50 ([2]; synthetic peptides resulting from simulated gastrointestinal digestion, read-out: ACE-inhibitory activity IC50): 741 µM; times less ACE-inhibitory activity than the starting peptide ([2]; versus PYVRYL): 370 times
AYFYPEL [SEQ. ID. No. 13, AYFYPEL] |  |  |  |  |  |  |  | IC50 ([2]; read-out: ACE-inhibitory activity CI50, synthetic peptides of bovine casein permeate fractions): 7.5 µM
HLPLPLL [SEQ. ID. No. 14, HLPLPLL] |  |  |  |  |  |  |  | IC50 ([2]; synthetic peptides of bovine casein permeate fractions, read-out: ACE-inhibitory activity CI50): 34.2 µM
LKKISQ [SEQ. ID. No. 1, LKKISQ] | 1.11 | >6 | bactericidal activity | 0.33 | 3.6 | 0 | 0 | ACE-inhibitory activity (in words) [2]: potent ACE-inhibitory activity; IC50 [2, 10]: 2.1 µM
LKKISQYYQKFAWPQYL (Derived from casein) [SEQ. ID. No. 3, ovine αs2-casein fragment 165-181] | >6 | >6 | bactericidal activity | 4.63 | >6 | 0.38 | 3.32 | antimicrobial activity against E. coli (in words) [5]: high degree of antimicrobial activity
PYVRYL [SEQ. ID. No. 7, PYVRYL] |  |  |  |  |  |  |  | IC50 [2, 10]: 1.94 µM
VDQHQKAMKPWTQPKTNAIPYVRYL (Derived from casein) [SEQ. ID. No. 2, ovine αs2-casein fragment 184-208] | 1.71 | >6 | bactericidal activity | 0.07 | 0.61 | 0 | 0 | 
VRYL [SEQ. ID. No. 11, previously identified 205-208 fragment of ovine αs2-casein from Manchego cheese] |  |  |  |  |  |  |  | IC50 [9]: 24.1 µM
